Legend:
Strain MNH06163 = assay: antibiotic susceptibility testing, disk diffusion test; format: cell-based, Christensenella sp.; settings: for MNH06163 Inhibition Zone Diameter: disk diffusion, strain MNH06163; for susceptibility of strain MNH06163 to the antibiotic: result in words
Protocol: (§1) Antibiotic susceptibility testing was performed separately for each strain using the disk diffusion test.

Strain MNH05119 = assay: as above; format: cell-based, Christensenella sp.; settings: for MNH05119 Inhibition Zone Diameter: disk diffusion, strain MNH05119; for susceptibility of strain MNH05119 to the antibiotic: result in words
Protocol: as §1

Strain MNH04863 = assay: as above; format: cell-based, Christensenella sp.; settings: for MNH04863 Inhibition Zone Diameter: disk diffusion, strain MNH04863; for susceptibility of strain MNH04863 to the antibiotic: result in words
Protocol: as §1

[1] = test system: type II diabetic mice (db/db); assay: combination of MNH05119 and metformin in type II diabetic model mice (Example 7); format: in vivo, BKS-Leprem2Cd479/Gpt (db/db) mice; settings: 28 days, MNH05119 2×10^10 CFU/mouse twice daily, metformin 250 mg/kg once daily, oral gavage
From the text: (1) Experimental animals: The experimental mice were BKS-Leprem2Cd479/Gpt (db/db) mice, aged 5-6 weeks, 32 mice in total, purchased from GuangDong GemPharmatech Co., Ltd.
The activated strain was inoculated in MM01 liquid medium and cultured anaerobically to obtain a sufficient amount of cultures. These cultures were centrifuged, concentrated and resuspended in a solvent to obtain the subjects with purity and viable bacteria counts (1×10^11 CFU/mL) that satisfy the requirements of the animal experiments.
3) Negative control (HFD-control group): PBS-Cys was used as a negative control.
5) Experimental procedure: 5 to 6-week-old of 32 BKS-Leprem2Cd479/Gpt (db/db) male
mice were randomly grouped according to their body weights after quarantine, with 8 mice/group divided into 4 groups. […] All data were expressed as mean±SD, graphed and statistically analyzed using GraphPad Prism 8.0.2 software. […]
6) Oral Glucose Tolerance Test (OGTT): On the 27th day (Day27) of administration, OGTT was determined after 12 h of fasting (e.g., fasting from 20:30:00 μm to 08:30:00 μm the following day). The fasting body weights of the mice were measured and glucose was administered by gavage at a dose of 2 g/kg (glucose g/mouse fasting body weight kg). Fasting blood glucose as well as blood glucose values at 15 min, 30 min, 60 min, 90 min and 120 min post-glucose administration were measured.

Row | Molecule | MNH06163 Inhibition Zone Diameter (Strain MNH06163) [mm] | susceptibility of strain MNH06163 to the antibiotic (Strain MNH06163) | MNH05119 Inhibition Zone Diameter (Strain MNH05119) [mm] | susceptibility of strain MNH05119 to the antibiotic (Strain MNH05119) | MNH04863 Inhibition Zone Diameter (Strain MNH04863) [mm] | susceptibility of strain MNH04863 to the antibiotic (Strain MNH04863) | reduction of fasting blood glucose value compared to negative control group [1] [%]
1 | CC1(C)S[C@@H]2[C@H](NC(=O)[C@H](N)c3ccccc3)C(=O)N2[C@H]1C(=O)O [Ampicillin (AMP), Ampicillin] | 0 | resistance | 0 | resistance | 0 | resistance | –
2 | CO/N=C(\C(=O)N[C@@H]1C(=O)N2C(C(=O)O)=C(CSc3nc(=O)c(=O)[nH]n3C)CS[C@H]12)c1csc(N)n1 [Ceftriaxone (CTR), Ceftriaxone] | 0 | resistance | 0 | resistance | 37.32 | sensitive | –
3 | O=C(N[C@H](CO)[C@H](O)c1ccc([N+](=O)[O-])cc1)C(Cl)Cl [Chloramphenicol (CLM), Chloramphenicol] | 21.59 | sensitive | 32.49 | sensitive | 38.88 | sensitive | –
4 | O=C(O)c1cn(C2CC2)c2cc(N3CCNCC3)c(F)cc2c1=O [Ciprofloxacin (CFX), Ciprofloxacin] | 0 | resistance | 0 | resistance | 0 | resistance | –
5 | CC[C@H]1OC(=O)[C@H](C)[C@@H](O[C@H]2C[C@@](C)(OC)[C@@H](O)[C@H](C)O2)[C@H](C)[C@@H](O[C@@H]2O[C@H](C)C[C@H](N(C)C)[C@H]2O)[C@](C)(O)C[C@@H](C)C(=O)[C@H](C)[C@@H](O)[C@]1(C)O [Erythromycin (ERM), Erythromycin] | 8.72 | sensitive | 31.65 | sensitive | 16.82 | sensitive | –
6 | CCC[C@@H]1C[C@@H](C(=O)N[C@@H]([C@H]2O[C@H](SC)[C@H](O)[C@@H](O)[C@H]2O)[C@@H](C)O)N(C)C1 [Lincomycin (LIN), Lincomycin] | 0 | resistance | 0 | resistance | 29.86 | sensitive | –
7 | CN(C)[C@@H]1C(O)=C(C(N)=O)C(=O)[C@@]2(O)C(O)=C3C(=O)c4c(O)cccc4[C@@](C)(O)[C@H]3C[C@@H]12 [Tetracycline (TET), Tetracycline] | 18.14 | – | 24.12 | – | 46.11 | – | –
8 | CN(C)C(=N)N=C(N)N [metformin] | – | – | – | – | – | – | 50
9 | Compound sulfamethoxazole [sulfamethoxazole (T/S)] | 0 | resistance | 0 | resistance | 0 | resistance | –
10 | Gentamycin [Gentamycin (GEN)] | 0 | resistance | 0 | resistance | 0 | resistance | –
11 | Penicillin [Penicillin (PEN)] | 0 | resistance | 0 | resistance | 43.06 | sensitive | –

From patent US20260008995A1, “ISOLATED […], COMPOSITIONS COMPRISING THE SAME, AND USES THEREOF” (MOON (GUANGZHOU) BIOTECH CO., LTD., priority 2023, published 2026)
